Assay results as given in ChEMBL document CHEMBL3507680, “University of Dundee, Gates Library screen for HepG2 cell viability”.

Test: Human HepG2 cell viability assay in 384 well format
Format: toxicity, cell-based
Set-up: dose 125 nL, time 70.5 hour; cytotoxicity at 70.5 h: concentration not given beside the values
Settings: HepG2 cells, read-out: Inhibition

Structure (SMILES)	cytotoxicity at 70.5 h
Cn1cc(C[C@H]2[C@H](O)CCN2C(=O)C2CCOCC2)cn1	-7.24%
O=C(c1ccc(Cl)cc1-n1cnnn1)N1CCC2(CC1)OCCO2	-0.151%
Cn1cnnc1SCC(=O)N1C[C@H]2CC[C@@H]1CN(Cc1cccnc1)C2	-3.64%
Cc1ccsc1[C@@H]1CCN(C(=O)CCc2cc(O)no2)C[C@H]1O	-15.1%
c1ccc(O[C@H]2COCCN(Cc3c[nH]c4ccccc34)C2)cc1	-6.76%
CNC(=O)C1(CCCc2cnccn2)CCN1CCc1ccccc1 (stereo not given)	-2.58%
CC(C)OC[C@H]1CCC[C@]12CN(S(=O)(=O)c1cccs1)CCO2	-8.77%
OCCc1cc(CC2(NCc3ccncc3)COC2)no1	-4.15%
CC(C)c1ncc2c(n1)CN(Cc1nc(-c3ccsc3)no1)CC2	-13.7%
CNC(=O)CCCNCc1c(C)nn(CC(C)C)c1N(C)C	0.675%
CCc1nc2n(n1)CCCC2NC(=O)Nc1ccc(SC)c(F)c1 (stereo not given)	-6.66%
Cc1occc(=O)c1OCC(=O)N1CCN(c2ccccc2)CC1	-0.838%
O=S1(=O)NCC2(CCNCC2)COc2ccccc21	-2.63%
CN(Cc1ccco1)[C@@H]1CN(Cc2nccn2C)[C@@H]2CCCO[C@H]12	-8.73%
CC(C)NC(=O)[C@@H]1CC[C@@H]2[C@@H](CCN2Cc2cn(C)c3ccccc23)O1	-2.33%
Cc1ccoc1C(=O)N1CCO[C@H]2[C@H](OCc3ccncc3)CC[C@@H]21	-0.105%
CCc1cc(N[C@@H]2C[C@H]3CC[C@@H]2C3)n2nccc2n1	-6.76%
Cc1cccnc1CC(C)N(C)Cc1cccs1 (stereo not given)	-13.2%
CCC(CC)C(=O)N1CCc2nc(N3CCCC3)nc(C)c2CC1	-12.2%
CN(C)CCN1CCCC12CCN(C(=O)c1ccoc1)CC2	-9.15%
Cc1cnn(CC2CCCCN2Cc2nnc(C3CC3)n2C)c1 (stereo not given)	-6.92%
c1cncc(CN2CCn3c(Cn4cncn4)cnc3C2)c1	-7.44%
Fc1cnc(N2CCC3(CC2)CN(Cc2ccccn2)CCO3)nc1	5.75%

Structure (SMILES)	cytotoxicity at 70.5 h
CC(CN1CCOCC1)NCc1nncn1C1CCCCC1 (stereo not given)	-3.01%
O=C(CCCn1cnnn1)N1CCC(c2ccncc2)CC1	22.6%
Cc1cnn(CC2CCCN2CC(=O)NC2CCOCC2)c1 (stereo not given)	0.77%
Cc1c(Br)cccc1C(=O)NCC1CCCNC1 (stereo not given)	2.2%
Cc1nc(C2(NC(=O)NCc3cc(C#N)ccc3F)CCCC2)no1	-10.1%
Cn1cccc1C(=O)N1CCC(c2nnc(Cn3ccnc3)n2C)CC1	-5.24%
O=C(N1CCOCC1)N1CCc2ncnc(Oc3cccnc3)c2CC1	-2.03%
Cc1csc(N2CCC(NCC3(O)CCc4ccccc43)CC2)n1 (stereo not given)	-7.31%
CCN(C(=O)c1ccc2c(c1)OCO2)C1CC(=O)NC1=O (stereo not given)	-6.4%
Cc1ccc(CNC(=O)Nc2nnc(C)s2)cn1	-5.53%
CCN(CC)Cc1cc(C(=O)N2CCC3(CCN(C)CC3)C2)c(C)o1	-14.5%
Cc1ccc(-n2ncc(C(=O)NC3CCCCC3)c2N)cc1	-2.62%
CC(C)Oc1cccc(C(=O)C2CCCN(C(=O)c3ccoc3)C2)c1 (stereo not given)	-9.57%
O=C(NCCOCCO)c1cccnc1Oc1ccc(Cl)cc1	16.6%
CCOCC1CN(Cc2cccs2)Cc2nn(C)cc21 (stereo not given)	-6.21%
CN(C)S(=O)(=O)c1ccc(CN2CCC(c3ccccc3)C2)o1 (stereo not given)	4.6%
CCOC(=O)CSc1ccc(-c2nc(CC)no2)cn1	-2.21%
CNc1c(NCc2ccco2)c(=O)c1=O	-12.4%
c1ccc2sc(CN3CCOC(Cn4cncn4)C3)nc2c1 (stereo not given)	-4.62%
CC1CCC(NC(=O)NCC(C)(C)CCS(C)(=O)=O)CC1 (stereo not given)	-4.98%
CCc1nc2n(n1)CC(NCc1cc(OC)c3c(c1)OCCO3)CC2 (stereo not given)	-5.82%
COCC(=O)N1CCC2(CC1)CC(OC)CO2 (stereo not given)	-7.5%
N#Cc1cccnc1N1CCCN(C(=O)CCc2nccs2)CC1	-1.9%

Structure (SMILES)	cytotoxicity at 70.5 h
c1ccc(OCCNC2=NCCCN2)cc1	24.2%
CN(c1ccc(F)c(F)c1)S(=O)(=O)c1cc(C(=O)O)cs1	-6.55%
COCCN(C)C[C@@H]1CN(C(=O)c2c(C)cccc2OC)C[C@@H]1CO	-4.17%
O=C(CC1CC1)N1CCn2cc(Cn3cccn3)nc2C1	-15.8%
CNc1cc(CNC(=O)c2ccncc2)nc(-c2ccncc2)n1	-2.12%
COc1ncc(NCc2ccsc2)cc1C(N)=O	3.63%
CN(C)c1ccc(CCCNC(=O)Nc2ccc(C#N)cc2)cc1	1.4%
FC(F)(F)Cn1ccnc1CN1CCOC(Cn2cccn2)C1 (stereo not given)	-2.61%
CCN(CCCNC(=O)c1cc2cccc(F)c2o1)S(C)(=O)=O	-8.74%
Cc1cnccc1CN1CC[C@H](Oc2cccc(F)c2)[C@@](C)(O)C1	0.441%
COCCn1cc2c(n1)C(CNCc1cccc(OC)c1)OCC2 (stereo not given)	20.4%
CN(C)CCNC(=O)CNC(=O)N1CCc2c([nH]c3ccc(Cl)cc23)C1	45.2%
Cc1nc(CN2CCc3c(nc(C4CC4)n3C)C2)nc2ccccc12	-5.35%
Cc1nc2c(C)cccc2cc1C(=O)N1CCC2(CCNCC2)CC1	-5.65%
COc1ccc(NC(=O)CCN2CC=C(c3cnn(C)c3)CC2)cc1Cl	5.66%
CNC(=O)C1(N2CCC[C@H]2C(=O)NC2CCOCC2)CCOCC1	-6.78%
Cc1nn(C)c(N2CCOCC2)c1CNC1CCC(O)CC1 (stereo not given)	-1.76%
CCc1ncc2c(n1)CN(C(=O)COC)C2	-4.18%
Cc1nn(C(C)C)c2cnn(CC(=O)N3CCN(C)CC3)c12	-8.52%
COc1ccc(Cl)cc1NCC(=O)NCCNc1ncccn1	-2.38%
CCOc1cccc(CNc2ccccc2Cl)c1O	-4.02%
O=C(Nc1ccccc1)NC1CCN(C2CCOC2)CC1 (stereo not given)	5.7%
Cc1nc(NC(=O)CN2CCc3c(nc(C(C)C)n3C)C2)sc1C	-7.61%

Structure (SMILES)	cytotoxicity at 70.5 h
CC(C)(C)C(=O)Cn1nc(-c2ccccc2F)ccc1=O	-21.7%
O=C(c1cccc(F)c1)N(CCCO)S(=O)(=O)c1cccs1	-8.04%
CC(C(=O)N1CCOCC1)S(=O)(=O)Cc1noc(C(C)(C)C)n1 (stereo not given)	7.07%
CCN(C)Cc1cccc(CNC(=O)CSCc2ccncc2)c1	-6.72%
Cc1cc(C)c2ncn(CCOCCO)c(=O)c2c1	-5.3%
CC(C)N1CCC(c2cnc(-c3cncnc3)cn2)CC1	21.3%
CCOCCC(=O)Nc1cc(C(N)=O)ccc1N1CCCC(C)C1 (stereo not given)	-2.01%
O=C(c1ccc2c(c1)OCCCO2)N1CCCCC1C1OCCO1 (stereo not given)	-3.71%
CC/C=C(/C)C(=O)N1CCN(C2=NCC(C)S2)CC1 (stereo not given)	32.7%
CC(=O)Nc1cccc(OCCNC(=O)N(C)Cc2ccco2)c1	0.512%
CCC(C)(NC(=O)CCN1CCOC1=O)C(=O)OC (stereo not given)	20.8%
O=C(C1CCOCC1)N1CCc2ncc(CN3CCCC3)n2CC1	-13.2%
CC(C)n1ccnc1CN1C(=O)OC[C@@H]1c1ccccc1	-2.47%
CC(C)N1CC(c2ccnc(Nc3nccs3)n2)C1	-10.4%
COCCN(C)C(=O)c1nc2c(s1)CCCN2C(=O)C1CC1	-3.1%
CCCn1cc(-c2cc(-c3ccoc3)c(C#N)c(N)n2)c(C)n1	5.86%
CCOCCn1c(=O)[nH]c2cc(C(=O)N(C)Cc3ccno3)ccc21	-1.24%
O=C(C1=CCCC1)N1CCC[C@]2(C[C@@H](OCc3ccccn3)CO2)C1	-15.2%
O=c1[nH]cnc2[nH]c(N3CCCCC3)nc12	-5.16%
CN(C)CCn1c([C@@H]2CCCO2)cc2cccnc21	2.42%
O=C(NCc1ccc2c(c1)OCO2)[C@H]1C=CCN1c1ncccn1	-4.63%
O=C(NCc1ccc(-n2cncn2)nc1)c1ccc2c(c1)CCC2	0.85%
CN(C)C(=O)CNC(=O)c1ccn(-c2ccc3ccccn23)n1	-8.61%

Structure (SMILES)	cytotoxicity at 70.5 h
CN1C[C@@H](C(=O)N2CCOCC2)[C@@]2(CCc3ccccc3C(=O)N2)C1	-1.75%
Cc1cc(C)c2c(c1)C(CC(=O)O)C(=O)N2 (stereo not given)	24.2%
Cc1cnn(C2CN(Cc3noc(C)n3)C2)c1	-6.5%
COCC(=O)N1CCC(c2cccc(Cc3ccc(F)cc3)n2)CC1	-6.39%
CN1C(=O)CCCC12CCCN(Cc1nccs1)C2 (stereo not given)	9.31%
CC(C)(C)CC(=O)N1CSCC1C(=O)NC1=NCCS1 (stereo not given)	19.4%
Cc1ccc(CN2CC[C@H]3OCC[C@@H](c4nc(C)no4)[C@H]3C2)cc1	-11.4%
O=C1N(c2ccsc2)CCC12CCCN(Cc1cccnc1)C2 (stereo not given)	-7.79%
CCOc1ccc(NC(=O)NC2CCc3[nH]ncc3C2)cn1 (stereo not given)	-2.96%
COCCN1CCn2cc(CNC(=O)c3cnn(C)c3)nc2C1	-38%
COCC(=O)N1CCN(C(=O)c2cccs2)[C@@H](C(=O)OC)C1	-5%
O=C(c1ccc(-n2ccnc2)cc1)N1CCCC1	34.6%
Cc1cccc(-n2ncc3c2CCCC3NCc2cnn(C)c2C)c1C (stereo not given)	3.5%
OCCN1CC2(CCN(CC3CC3)CC2)c2ccccc21	4.7%
Cc1nccnc1CCC1COCCN1C(=O)CCc1c(C)noc1C (stereo not given)	15.5%
Cc1nc(C(C)C)sc1C(=O)NCCSc1nccn1C	-10.1%
Cc1ccc(C(=O)Nc2cnn(CC(=O)NC3CCCC3)c2)c(=O)[nH]1	-3.7%
COc1c(CNCc2cnn(C)c2)c(C(C)C)nn1C	7.69%
O=C(NCC(F)F)N1CCC(n2ccc(C(F)(F)F)n2)CC1	2.24%
COc1cccc(-c2cc(C(=O)NCCCn3cnnc3)[nH]n2)c1	-11.1%
O=C1CC(c2ccncc2)c2c(c(C(=O)O)cn2-c2ccc(F)cc2)N1 (stereo not given)	-6.2%
CCC[C@H]1CN(CCOC)C[C@@H]1NC(=O)Cn1cc(C)cn1	4.5%
COc1ccccc1C1(CNCc2cccc(O)c2)CCOCC1	-2.11%
